# Source: patent US5861405A, “S-substituted 1,3,7-trialkyl-xanthine derivatives” (priority 1994, dated 1999)
# Tests used:
# [1] = biological target: rat striatal A2a receptors (Rattus norvegicus, UniProt P30543); assay: Radioligand binding, [3H]CGS 21680, rat striatal A2a receptors; parameters: Rat cerebral cortical membranes and striatal membranes were prepared; from tissue; host or cells: rat striatal membranes; details: Table I; vs [3H]CGS21680 (5 nM), rat striatal A2 receptors; read-out: Ki (A2a)
# A2 receptors, rat brain = details: read-out: Ki (A2a), Erickson et al.; cited from earlier work
# [2] = biological target: A2 receptors, rat striatum; details: vs [3H]NECA in rat striatum; read-out: Ki (A2a), Shimada et al.; cited from earlier work
# [3] = biological target: A1 receptors, guinea pig brain; details: vs [3H]CHA in guinea pig brain; read-out: Ki (A1), Shimada et al.; cited from earlier work
# rat striatal A2a receptors, sequence (P30543 whole entry): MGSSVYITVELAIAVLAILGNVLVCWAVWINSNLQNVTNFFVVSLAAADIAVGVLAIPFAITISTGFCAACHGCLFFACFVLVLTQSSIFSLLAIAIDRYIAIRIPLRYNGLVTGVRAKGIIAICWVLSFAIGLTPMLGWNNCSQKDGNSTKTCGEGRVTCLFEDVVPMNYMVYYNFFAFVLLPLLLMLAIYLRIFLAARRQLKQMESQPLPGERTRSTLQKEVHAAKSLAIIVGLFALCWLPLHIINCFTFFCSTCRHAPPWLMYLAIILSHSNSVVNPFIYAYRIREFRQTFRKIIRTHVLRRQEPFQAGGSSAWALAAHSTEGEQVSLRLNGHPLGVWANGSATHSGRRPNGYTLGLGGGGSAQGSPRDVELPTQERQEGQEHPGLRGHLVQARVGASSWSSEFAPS
structure (smiles),measurement,setting,value
CCCn1c(=O)c2[nH]c(/C=C/c3ccccc3)nc2n(CCC)c1=O [Compound 47],Ki,[1],44 ± 19 nM
same,Ki,"A2 receptors, rat brain",85 nM
same,Ki,[2],26 nM
same,Ki,[3],1800 nM
